From patent publication US20110306600A1, “NOVEL THERAPEUTIC COMPOUNDS” (Grunenthal GmbH, priority 2010, published 2011)

Assay: Thermal tail-flick test on rats
Type: in vivo, rat
Settings: 3 mg/kg injection in saline, against placebo, TFL measured approximately every hour
Experimental: Therapeutic Solutions: The compound 2 90 mg was dissolved in 30 ml of saline solution and the injection volume was calculated as 1 ml/kg to achieve 3 mg/kg of compound of Formula 31. The placebo solution was identical except it is devoid of any drug.
Tail-Flick Test: The experimentation was started by selecting ten at least 90-100 days old and were all weighed to determine the volume of experimental and placebo solution. Each rat, was habituated for three days to handling and the tail flick procedure and without heat exposure. In the administration, each animal was only used for one day of experiments, and given only one dose of drug, or placebo solution. The technique of D'Amour and Smith (1941) relies on latency to flick of the tail from onset of a focused beam of intense light. This method, employed for decades, has now been augmented by the ability to monitor temperature at the site of exposure. Columbus Instruments model TF-2 model was warmed, on the day of the experiment, for at least 30 minutes. The intensity of the lamp was adjusted so that baseline tail-flick latency for rats is equal to approximately 2.0 seconds. The intensity was set to 40% as this was determined to be the ideal intensity from the intensity response curve. […] The baseline value was determined for each animal prior to injection. The TFL was measured approximately every hour. The semilog means were calculated.

SMILES: CC12CC3CC(C)(C1)CC(NC(=O)C1(CN)CCCCC1)(C3)C2 [Formula 2]
- time course of antinociceptive effect in the thermal tail flick test (FIG. 1): antinociceptive effect
